We go through 5 molecules from article PMC2923755, “Thermolability of mutant MMACHC protein in the vitamin B12-responsive cblC disorder” (Molecular Genetics and Metabolism, 2010).

The AC50 is the concentration giving half of the maximal activity seen.

A short description of series [1]: UV-visible absorption spectra of free cobalamin. The class given is physicochemical. The conditions noted are these: base-on, nm. Here is the method:
(§1) To determine base-on or base-off binding, 5 μM of the appropriate cobalamin or cobinamde in buffer (100 mM Tris, pH 7.0), was incubated in the dark with 400 μl total of 50 μM MMACHC protein (wild-type or R161Q), prepared in the same buffer, or alone, for 5 min at room temperature. In order to retain the high amounts of protein necessary for these experiments, the His-tag (wt and R161Q) or GST-tag (wt protein) was left on. Absorption spectrum measurements were carried out using a MOS-250 spectrometer and recorded using Bio-Kine 32 v4.20 software.
(§2) In order to determine whether the R161Q mutation interferes with the ability of MMACHC to support this transition, we examined the UV–visible absorption spectra for the proteins bound to AdoCbl, as an example of an alkylcobalamin, as well as for the proteins bound to CNCbl and OHCbl. Each cobalamin was added at a concentration of […] (Fig. 5). To determine whether the cobalamin was base-on or base-off, in the case of CNCbl both base-on and base-off spectra were determined for the free vitamin, as previously reported [[12,14]]. […] Confirming our earlier data, GST-tagged MMACHC-wt bound CNCbl in the base-off state (Table 2). […] Both MMACHC-wt and MMACHC-R161Q bound AdoCbl in the base-off state (Fig. 5; Table 2). […] Finally, neither MMACHC-wt nor MMACHC-R161Q modified OHCbl binding, which retained the base-on profile regardless of the MMACHC species present (Fig. 5; Table 2).

The target in a further series is T1, His-MMACHC-R161Q (Homo sapiens, UniProt Q9Y4U1, R161Q).
T1 construct: made in house; host or cells: E. coli BL21 DE3
T1 sequence (Q9Y4U1 1-282 R161Q): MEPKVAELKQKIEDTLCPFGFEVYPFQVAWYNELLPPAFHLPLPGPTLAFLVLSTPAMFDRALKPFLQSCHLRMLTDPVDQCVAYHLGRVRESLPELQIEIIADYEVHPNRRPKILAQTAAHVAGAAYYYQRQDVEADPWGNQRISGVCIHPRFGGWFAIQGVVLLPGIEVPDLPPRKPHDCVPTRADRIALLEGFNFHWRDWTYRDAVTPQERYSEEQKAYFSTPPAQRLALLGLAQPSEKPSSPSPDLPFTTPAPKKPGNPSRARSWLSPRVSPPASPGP
Put plainly: UV-visible absorption spectra, base-on/base-off binding. As to conditions: 5 μM cobalamin, 50 μM protein, pH 7.0. As to the method: […] In order to retain the high amounts of protein necessary for these experiments, the His-tag (wt and R161Q) or GST-tag (wt protein) was left on. Absorption spectrum measurements were carried out using a MOS-250 spectrometer and recorded using Bio-Kine 32 v4.20 software.
as §2

The target in the next series is T2, MMACHC-R161Q (Homo sapiens, UniProt Q9Y4U1, R161Q).
T2 construct: His-tag (N, cleaved yes); made in house; host or cells: E. coli BL21 DE3
T2 sequence (Q9Y4U1 1-282 R161Q): T1 sequence (Q9Y4U1 1-282 R161Q)
Briefly: Differential scanning fluorimetry (DSF), stabilization by cobalamins. The class given is binding. The conditions noted are these: for ΔTm max: Tm at 50 μM ligand minus Tm at 0 μM ligand; for ΔTm max / AC50: DSF; for AC50: half-maximal effective ligand concentration for stabilization, 3 μM protein, fit of ΔTm vs ligand concentration. Here is the method: (§3) DSF was performed and analyzed as described in Niesen et al., with minor modifications. Purified MMACHC proteins were diluted to 0.1 mg/ml (3 μM) in buffer (10 mM HEPES pH 7.5, 0.5 M NaCl, 5% glycerol) with 1:1000 Sypro Orange (Invitrogen) and run in triplicate. The proteins were heated from 5 to 75 °C with a ramp rate of 1 °C/min in a thermocycler (Bio-rad C1000 Thermocycler, CFX96 Real-time system). All graphs were normalized so that minimum fluorescence was set to 0 and maximum fluorescence set to 1. […] Final graphs and AC50’s were generated using Kadeidagraph 4.0 software (Synergy Software, Reading, PA). AC50’s were determined by fitting the ΔTm vs. ligand concentration curves to the equation ΔTm = ΔTm max[S]/(AC50 + [S]) where ΔTm is the change in melting temperature (Tm[protein + ligand] − Tm[protein]), ΔTm max is the maximal change in Tm at saturating (50 μM) ligand concentration and [S] is the ligand concentration.
(§4) Wild-type (MMACHC-wt) and mutant (MMACHC-R161Q) MMACHC were expressed and purified to >95% purity, with His-tag removed, as judged by SDS–PAGE (Fig. 2A). In order to investigate the thermostability of MMACHC we used DSF, a method that measures protein stability and ligand-induced changes in stability [[20,21]]. DSF uses an environmentally sensitive dye, such as Sypro orange, to monitor protein-unfolding caused by heat denaturation. As the protein unfolds, the dye, which has a higher fluorescence quantum yield in nonpolar environments than in aqueous media, binds to hydrophobic regions of the protein, causing a large increase in fluorescence [[22,23]]. Protein stability is expressed as the melting point of the protein (Tm), that is, the transition midpoint of the fluorescence curve, corresponding to the temperature at which half of the protein molecules are folded and half are unfolded. […] Even lower was the stability of MMACHC-R161Q (Tm = 37.1 ± 0.7 °C) (Fig. 2B). The difference in Tm was small but nonetheless significant (p < 0.01). A second difference between the wild-type and mutant proteins was the shape of the unfolding curves, with the unfolding of the mutant protein showing high cooperativity indicating a two-state unfolding mechanism while the unfolding of the wild-type protein stretched over a larger temperature range and comprised two phases (Fig. 2B; also Fig. 3A at 0 μM OHCbl).
(In general: In DSF a fluorescence change marks the thermal transition of the protein.)

For the next series, the target named is T3, MMACHC-wt (Homo sapiens, UniProt Q9Y4U1).
T3 construct: His-tag (N, cleaved yes); made in house; host or cells: E. coli BL21 DE3
T3 sequence (Q9Y4U1 1-282): T1 sequence (Q9Y4U1 1-282 R161Q) with Q161R
The description is as above. In kind it is binding. As to conditions: for ΔTm max: Tm at 50 μM ligand minus Tm at 0 μM ligand; for AC50: half-maximal effective ligand concentration for stabilization, 3 μM protein, fit of ΔTm vs ligand concentration. Here is the method:
as §3, §4

The next series deals with T4, GST-MMACHC-wt (Homo sapiens, UniProt Q9Y4U1).
T4 construct: made in house
T4 sequence (Q9Y4U1 1-282): T1 sequence (Q9Y4U1 1-282 R161Q) with Q161R
Briefly: UV-visible absorption spectra, base-on/base-off binding. The conditions noted are these: 5 μM cobalamin, 50 μM protein, pH 7.0. Here is the method:
as §1, §2

Series [2] deals with T5, His-MMACHC-wt (Homo sapiens, UniProt Q9Y4U1).
T5 construct: made in house; host or cells: E. coli BL21 DE3
T5 sequence (Q9Y4U1 1-282): T1 sequence (Q9Y4U1 1-282 R161Q) with Q161R
Described as above. As to conditions: 5 μM cobalamin, 50 μM protein, pH 7.0. Here is the method: as §1, §2

For series [3], the target named is T5, His-MMACHC-wt. Set-up: method as in PMID 18779575. As to conditions: cited from earlier work.
Series [4] is described as follows: Isothermal denaturation (ITD). The class given is physicochemical. As to conditions: constant 35 °C over 120 min, Sypro orange fluorescence. As to the method: ITD was performed as previously described with minor variations. Samples of both proteins prepared similarly as for DSF (at similar concentrations) were kept at constant temperature of 35 °C while monitoring the fluorescence of Sypro orange at intervals of one minute in a thermocycler (Bio-rad C1000 Thermocycler, CFX96 Real-time system) over 120 min (n = 12 for each protein).
We performed isothermal […] (ITD) to investigate further the difference in stability between the two proteins. ITD has been described as being more sensitive than DSF for detecting small changes in protein stability. ITD measures the unfolding of proteins at a constant temperature, typically chosen as a few degrees below the Tm, using a similar procedure as DSF including the use of Sypro orange as the reporter dye. […] After 120 min the intensity reached approximately half of the amplitude seen for unfolding with DSF (Fig. 2B). […] This difference cannot be explained with the relatively small difference in the Tm. If ITD is performed at a temperature that falls within the range of the unfolding transition a gradual increase in the proportion of unfolded protein molecules, i.e. a constant increase in fluorescence intensity, would still be expected even at temperatures […] the Tm (18).

The nature of series [5]: DSF thermostability of apo protein. In kind it is physicochemical. As to conditions: apo form, His-tag removed, no ligand. As to the method: as §3
Wild-type (MMACHC-wt) and mutant (MMACHC-R161Q) MMACHC were expressed and purified to >95% purity, with His-tag removed, as judged by SDS–PAGE (Fig. 2A). […] As the protein unfolds, the dye, which has a higher fluorescence quantum yield in nonpolar environments than in aqueous media, binds to hydrophobic regions of the protein, causing a large increase in fluorescence [[22,23]]. […]

Substitutions are numbered along the chain they refer to. Names may count otherwise.

Turning to `CC1=C2N=C(C=C3N=C(C(C)=C4[N-]C(C(CC(N)=O)C4(C)CCC(=O)NCC(C)OP(=O)([O-])OC4C(CO)OC(n5cnc6cc(C)c(C)cc65)C4O)C4(C)N=C1C(CCC(N)=O)C4(C)CC(N)=O)C(CCC(N)=O)C3(C)C)C(CCC(N)=O)C2(C)CC(N)=O.[CH2-]C1OC(n2cnc3c(N)ncnc32)C(O)C1O.[Co+3]` (centres unmarked) [AdoCbl, 5′-deoxyadenosylcobalamin], the α/β-Peak in series [1] was 524 nm; at His-MMACHC-R161Q (nm), 461 nm; at GST-MMACHC-wt (nm) it was 472 nm; on His-MMACHC-wt [2] (nm), 460 nm. For the same molecule, the Base-on/off entry at His-MMACHC-R161Q was “Off”; on GST-MMACHC-wt it was “Off”; at His-MMACHC-wt [2], “base-off and Off”. For the same molecule, the figures for the ΔTm max at MMACHC-R161Q and at MMACHC-wt were 13.2 ± 0.1 °C and 15.5 ± 0.1 °C, respectively. The concentration at half-maximal activity (AC50) was determined as 1100 ± 100 nM on MMACHC-R161Q and 900 ± 100 nM at MMACHC-wt. At MMACHC-R161Q (times/fold less effective than with MMACHC-wt), the “AC50 of R161Q relative to wild-type” value is given as “similar”. At His-MMACHC-wt [3], the “binding conformation (base-on/off)” value is given as “base-off”.

On to `C/C1=C2/[N-]C([C@H](CC(N)=O)[C@@]2(C)CCC(=O)NCC(C)O)[C@]2(C)N=C(/C(C)=C3N=C(/C=C4N=C1[C@@H](CCC(N)=O)C\4(C)C)[C@@H](CCC(N)=O)[C@]\3(C)CC(N)=O)[C@@H](CCC(N)=O)[C@]2(C)CC(N)=O.[C-]#N.[C-]#N.[Co]` (some centres unmarked) [Cbi, dicyanocobinamide], for which, on MMACHC-R161Q, the ΔTm max stood at 6.8 ± 0.2 °C and the AC50 was determined as 9100 ± 1600 nM. In addition, on MMACHC-wt, the ΔTm max worked out at 9.8 ± 0.2 °C and the concentration at half-maximal activity (AC50) worked out at 1300 ± 200 nM.

Take `C/C1=C2/[N-][C@H]([C@H](CC(N)=O)[C@@]2(C)CCC(=O)NC[C@H](C)OP(=O)([O-])O[C@H]2[C@@H](O)[C@@H](n3cnc4cc(C)c(C)cc43)O[C@@H]2CO)[C@]2(C)N=C(/C(C)=C3N=C(/C=C4N=C1[C@@H](CCC(N)=O)C\4(C)C)[C@@H](CCC(N)=O)[C@]\3(C)CC(N)=O)[C@@H](CCC(N)=O)[C@]2(C)CC(N)=O.[CH3-].[Co+3]` [MeCbl, methylcobalamin]: at MMACHC-R161Q, the ΔTm max amounted to 9.3 ± 0.3 °C and the half-maximal activity concentration (AC50) stood at 8000 ± 1600 nM. Moreover, at MMACHC-wt, the ΔTm max came out at 12.7 ± 0.4 °C and the half-maximal activity concentration (AC50) came out at 2100 ± 300 nM. In addition, at His-MMACHC-wt [3], the “binding conformation (base-on/off)” value is recorded as “base-off”.

B1: MMACHC-wt: recombinant wild-type MMACHC protein, His-tag removed by TEV (protein, UniProt Q9Y4U1 1-282, looked up)
Cyanocobalamin reductase / …: T1 sequence (Q9Y4U1 1-282 R161Q) with Q161R
Consider B1, for which, in series [4], the “unfolding by isothermal denaturation” value was “did not unfold”. Further, the “melting temperature (Tm)” value in [5] turned out to be 39.3 ± 1.0 °C.

B2: MMACHC-R161Q: recombinant MMACHC protein carrying the late-onset cblC mutation R161Q, His-tag removed (protein, UniProt Q9Y4U1 1-282, looked up, variant R161Q)
Cyanocobalamin reductase / …: T1 sequence (Q9Y4U1 1-282 R161Q)
Regarding B2, in [4], the “unfolding by isothermal denaturation” value is listed as “unfolding”. Moreover, in series [5], the “melting temperature (Tm)” value turned out to be 37.1 ± 0.7 °C.
